Columns and labels:
yellow nutsedge = test: Test C pre-/postemergence herbicide test; assay type: in vivo, Cyperus esculentus; settings: for Nutsedge, Yellow plant response rating: 500 g ai/ha
Method in brief: (§1)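 Emerged plants at the 1- to 4-leaf stage (2–18 cm), or freshly planted seeds, received test chemicals in a non-phytotoxic solvent mixture with surfactant. Response was visually scored against controls after 12 to 14 days in the greenhouse, on a 0 (no effect) to 100 (complete control) scale.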

large crabgrass = test: Test C pre-/postemergence herbicide test; assay type: in vivo, Digitaria sanguinalis; settings: for Crabgrass, Large plant response rating: 500 g ai/ha
Method in brief: as §1

bermudagrass = test: Test C pre-/postemergence herbicide test; assay type: in vivo, Cynodon dactylon
Method in brief: as §1

cocklebur = test: Test C pre-/postemergence herbicide test; assay type: in vivo, Xanthium strumarium; settings: for Cocklebur plant response rating: 500 g ai/ha
Method in brief: as §1

ducksalad = test: Test C flooded paddy test; assay type: in vivo, Heteranthera limosa; settings: for Plant response rating, Ducksalad: 500 g ai/ha, visual rating after 12 to 14 days
velvetleaf [1] = test: Test B pre-/postemergence herbicide test; assay type: in vivo, Abutilon theophrasti
Method in brief: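 Herbicidal effect was judged by eye on a 0–100 scale after plants stood 13 to 15 days in the greenhouse following pre- or postemergence treatment with surfactant-containing formulations.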

velvetleaf [2] = test: Test A pre-/postemergence herbicide test; assay type: in vivo, Abutilon theophrasti
Method in brief: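 Both application timings were run together: directed soil spray over freshly planted seeds in sandy loam, and runoff spray onto 2–10 cm seedlings. Evaluation after ~10 days in greenhouse used a 0–100 visual scale versus untreated controls.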

kochia = test: Test C pre-/postemergence herbicide test; assay type: in vivo, Kochia scoparia; settings: for Kochia plant response rating: 500 g ai/ha
Method in brief: as §1

soybean = test: Test C pre-/postemergence herbicide test; assay type: in vivo, Glycine max; settings: for Soybean plant response rating: 500 g ai/ha
Method in brief: as §1

[3] = 125 g ai/ha, scale 0 (no effect) to 100 (complete control), visual, 12 to 14 days, preemergence
[4] = 250 g ai/ha, scale 0 to 100 (0 no effect, 100 complete control), visual, 12 to 14 days, preemergence
[5] = Postemergence, 250 g ai/ha, scale 0 to 100, 0 no effect, 100 complete control
[6] = Preemergence, scale 0 to 100, 0 no effect, 100 complete control
[7] = postemergence, 62 g ai/ha, scale 0 to 100
[8] = Postemergence, 125 g ai/ha, scale 0 to 100, 0 no effect, 100 complete control
[9] = Preemergence, 500 g ai/ha, scale 0 to 100, 0 no effect, 100 complete control
[10] = 62 g ai/ha, scale 0 to 100 (0 no effect, 100 complete control)
[11] = 125 g ai/ha, scale of 0 to 100, 0 is no effect, 100 is complete control
[12] = 250 g ai/ha, scale of 0 to 100, 0 is no effect, 100 is complete control
[13] = scale 0 to 100 (0 no effect, 100 complete control)
[14] = Postemergence, 500 g ai/ha, visual rating after 13 to 15 days, scale 0 (no effect) to 100 (complete control)
[15] = postemergence, 125 g ai/ha, visual rating, scale 0 (no effect) to 100 (complete control)
[16] = preemergence, 125 g ai/ha, 0 to 100 scale, 0 is no effect, 100 is complete control
[17] = Postemergence, 2000 g ai/ha, 0 to 100 scale, 0 no effect, 100 complete control
[18] = Preemergence, 500 g ai/ha, visual rating, 0 to 100 scale (0 no effect, 100 complete control)
[19] = Preemergence, 2000 g ai/ha, visual rating, 0 to 100 scale (0 no effect, 100 complete control)

## CCNC(=O)c1cc(NC(=O)c2cc(C(C)(C)C)nn2CC)ccc1F [Compound 58]
Yellow nutsedge; 62 g ai/ha, preemergence
  Plant response rating (0 = no effect, 100 = complete control), Nutsedge, Yellow: 10
Yellow nutsedge; [3]
  Plant response rating, Nutsedge, Yellow: 20
Yellow nutsedge; [4]
  Plant response rating, Nutsedge, Yellow: 50
Yellow nutsedge; Postemergence, scale 0 to 100
  Nutsedge, Yellow plant response rating: 5
Yellow nutsedge; [5]
  Plant response rating, Nutsedge, Yellow: 5
Yellow nutsedge; [6]
  Nutsedge, Yellow plant response rating: 50
Yellow nutsedge; [7]
  Plant response rating, Nutsedge, Yellow: 0
Large crabgrass; 62 g ai/ha, preemergence
  Plant response rating (0 = no effect, 100 = complete control), Crabgrass, Large: 90
Large crabgrass; [3]
  Plant response rating, Crabgrass, Large: 95
Large crabgrass; [4]
  Plant response rating, Crabgrass, Large: 95
Large crabgrass; Postemergence, scale 0 to 100
  Crabgrass, Large plant response rating: 30
Large crabgrass; [8]
  Plant response rating, Crabgrass, Large: 5
Large crabgrass; [5]
  Plant response rating, Crabgrass, Large: 15
Large crabgrass; [6]
  Crabgrass, Large plant response rating: 95
Large crabgrass; [7]
  Plant response rating, Crabgrass, Large: 5
bermudagrass; 62 g ai/ha, preemergence
  Plant response rating (0 = no effect, 100 = complete control), Bermudagrass: 90
bermudagrass; [3]
  Plant response rating, Bermudagrass: 100
bermudagrass; [4]
  Plant response rating, Bermudagrass: 100
bermudagrass; Postemergence, 500 g ai/ha, scale 0 to 100
  Bermudagrass plant response rating: 10
bermudagrass; [8]
  Plant response rating, Bermudagrass: 5
bermudagrass; Postemergence, 250 g ai/ha, scale 0 to 100
  Bermudagrass plant response rating: 10
bermudagrass; [9]
  Bermudagrass plant response rating: 100
bermudagrass; [7]
  Plant response rating, Bermudagrass: 0
cocklebur; 62 g ai/ha, preemergence
  Plant response rating (0 = no effect, 100 = complete control), Cocklebur: 0
cocklebur; [3]
  Plant response rating, Cocklebur: 5
cocklebur; [4]
  Plant response rating, Cocklebur: 10
cocklebur; Postemergence, scale 0 to 100
  Cocklebur plant response rating: 50
cocklebur; [8]
  Plant response rating, Cocklebur: 20
cocklebur; [5]
  Plant response rating, Cocklebur: 20
cocklebur; [6]
  Cocklebur plant response rating: 30
cocklebur; [7]
  Plant response rating, Cocklebur: 15
ducksalad; [10]
  Ducksalad plant response rating: 0
ducksalad; [11]
  Ducksalad plant response rating: 15
ducksalad; [12]
  Ducksalad plant response rating: 20
ducksalad; [13]
  Plant response rating, Ducksalad: 60
Velvetleaf [1]; [14]
  Plant response rating, Velvetleaf: 70
Velvetleaf [1]; Preemergence, 500 g ai/ha, scale 0 to 100
  Velvetleaf plant response rating: 100
Velvetleaf [1]; [15]
  Velvetleaf plant response rating: 50
Velvetleaf [1]; [16]
  Plant response rating, Velvetleaf: 60
Velvetleaf [2]; [17]
  Plant response rating, Velvetleaf: 40
Velvetleaf [2]; [18]
  Velvetleaf plant response rating: 70
Velvetleaf [2]; Preemergence, 2000 g ai/ha, 0 to 100 scale, 0 no effect, 100 complete control
  Velvetleaf plant response rating: 65
kochia; 62 g ai/ha, preemergence
  Plant response rating (0 = no effect, 100 = complete control), Kochia: 95
kochia; [3]
  Plant response rating, Kochia: 95
kochia; [4]
  Plant response rating, Kochia: 95
kochia; Postemergence, scale 0 to 100
  Kochia plant response rating: 85
kochia; [8]
  Plant response rating, Kochia: 80
kochia; [5]
  Plant response rating, Kochia: 80
kochia; [6]
  Kochia plant response rating: 100
kochia; [7]
  Plant response rating, Kochia: 75
soybean; 62 g ai/ha, preemergence
  Plant response rating (0 = no effect, 100 = complete control), Soybean: 0
soybean; [3]
  Plant response rating, Soybean: 5
soybean; [4]
  Plant response rating, Soybean: 25
soybean; Postemergence, scale 0 to 100
  Soybean plant response rating: 90
soybean; [5]
  Plant response rating, Soybean: 80
soybean; [6]
  Soybean plant response rating: 40
soybean; [7]
  Plant response rating, Soybean: 15

## CCn1nc(C(C)(C)C)cc1C(=O)Nc1cccc2c1CCN(C1CC1)C2=O [Compound 64]
Yellow nutsedge; 62 g ai/ha, preemergence
  Plant response rating (0 = no effect, 100 = complete control), Nutsedge, Yellow: 0
Yellow nutsedge; [3]
  Plant response rating, Nutsedge, Yellow: 0
Yellow nutsedge; [6]
  Nutsedge, Yellow plant response rating: 0
Large crabgrass; 62 g ai/ha, preemergence
  Plant response rating (0 = no effect, 100 = complete control), Crabgrass, Large: 0
Large crabgrass; [3]
  Plant response rating, Crabgrass, Large: 40
Large crabgrass; [4]
  Plant response rating, Crabgrass, Large: 70
Large crabgrass; [6]
  Crabgrass, Large plant response rating: 90
bermudagrass; 62 g ai/ha, preemergence
  Plant response rating (0 = no effect, 100 = complete control), Bermudagrass: 0
bermudagrass; [3]
  Plant response rating, Bermudagrass: 30
bermudagrass; [4]
  Plant response rating, Bermudagrass: 85
bermudagrass; [9]
  Bermudagrass plant response rating: 90
cocklebur; 62 g ai/ha, preemergence
  Plant response rating (0 = no effect, 100 = complete control), Cocklebur: 0
cocklebur; [3]
  Plant response rating, Cocklebur: 0
cocklebur; [4]
  Plant response rating, Cocklebur: 0
cocklebur; [6]
  Cocklebur plant response rating: 0
ducksalad; [10]
  Ducksalad plant response rating: 0
ducksalad; [11]
  Ducksalad plant response rating: 10
ducksalad; [12]
  Ducksalad plant response rating: 25
ducksalad; [13]
  Plant response rating, Ducksalad: 40
Velvetleaf [1]; [14]
  Plant response rating, Velvetleaf: 10
Velvetleaf [1]; [15]
  Velvetleaf plant response rating: 10
Velvetleaf [1]; [16]
  Plant response rating, Velvetleaf: 0
Velvetleaf [2]; [17]
  Plant response rating, Velvetleaf: 30
Velvetleaf [2]; [18]
  Velvetleaf plant response rating: 10
Velvetleaf [2]; [19]
  Velvetleaf plant response rating: 35
kochia; 62 g ai/ha, preemergence
  Plant response rating (0 = no effect, 100 = complete control), Kochia: 0
kochia; [3]
  Plant response rating, Kochia: 20
kochia; [6]
  Kochia plant response rating: 60
soybean; 62 g ai/ha, preemergence
  Plant response rating (0 = no effect, 100 = complete control), Soybean: 0
soybean; [3]
  Plant response rating, Soybean: 0
soybean; [6]
  Soybean plant response rating: 60

## CCCN1CCc2c(NC(=O)c3cc(C(C)(C)C)nn3CC)cccc2C1=O [Compound 65]
Yellow nutsedge; 62 g ai/ha, preemergence
  Plant response rating (0 = no effect, 100 = complete control), Nutsedge, Yellow: 0
Yellow nutsedge; [3]
  Plant response rating, Nutsedge, Yellow: 0
Yellow nutsedge; [6]
  Nutsedge, Yellow plant response rating: 0
Large crabgrass; 62 g ai/ha, preemergence
  Plant response rating (0 = no effect, 100 = complete control), Crabgrass, Large: 50
Large crabgrass; [3]
  Plant response rating, Crabgrass, Large: 50
Large crabgrass; [4]
  Plant response rating, Crabgrass, Large: 80
Large crabgrass; [6]
  Crabgrass, Large plant response rating: 100
bermudagrass; 62 g ai/ha, preemergence
  Plant response rating (0 = no effect, 100 = complete control), Bermudagrass: 40
bermudagrass; [3]
  Plant response rating, Bermudagrass: 85
bermudagrass; [4]
  Plant response rating, Bermudagrass: 95
bermudagrass; [9]
  Bermudagrass plant response rating: 95
cocklebur; 62 g ai/ha, preemergence
  Plant response rating (0 = no effect, 100 = complete control), Cocklebur: 0
cocklebur; [3]
  Plant response rating, Cocklebur: 0
cocklebur; [4]
  Plant response rating, Cocklebur: 0
cocklebur; [6]
  Cocklebur plant response rating: 0
ducksalad; [10]
  Ducksalad plant response rating: 15
ducksalad; [11]
  Ducksalad plant response rating: 45
ducksalad; [12]
  Ducksalad plant response rating: 75
ducksalad; [13]
  Plant response rating, Ducksalad: 85
Velvetleaf [1]; [14]
  Plant response rating, Velvetleaf: 10
Velvetleaf [1]; [15]
  Velvetleaf plant response rating: 10
Velvetleaf [1]; [16]
  Plant response rating, Velvetleaf: 10
Velvetleaf [2]; [17]
  Plant response rating, Velvetleaf: 25
Velvetleaf [2]; [18]
  Velvetleaf plant response rating: 10
Velvetleaf [2]; [19]
  Velvetleaf plant response rating: 30
kochia; 62 g ai/ha, preemergence
  Plant response rating (0 = no effect, 100 = complete control), Kochia: 10
kochia; [3]
  Plant response rating, Kochia: 70
kochia; [6]
  Kochia plant response rating: 90
soybean; 62 g ai/ha, preemergence
  Plant response rating (0 = no effect, 100 = complete control), Soybean: 0
soybean; [3]
  Plant response rating, Soybean: 0
soybean; [6]
  Soybean plant response rating: 20

## CCOC(=O)c1cccc(NC(=O)c2cc(C(C)(C)C)nn2CC)c1C [Compound 88]
Yellow nutsedge; 62 g ai/ha, preemergence
  Plant response rating (0 = no effect, 100 = complete control), Nutsedge, Yellow: 0
Yellow nutsedge; [3]
  Plant response rating, Nutsedge, Yellow: 0
Yellow nutsedge; [6]
  Nutsedge, Yellow plant response rating: 0
Large crabgrass; 62 g ai/ha, preemergence
  Plant response rating (0 = no effect, 100 = complete control), Crabgrass, Large: 90
Large crabgrass; [3]
  Plant response rating, Crabgrass, Large: 95
Large crabgrass; [4]
  Plant response rating, Crabgrass, Large: 95
Large crabgrass; [6]
  Crabgrass, Large plant response rating: 100
bermudagrass; 62 g ai/ha, preemergence
  Plant response rating (0 = no effect, 100 = complete control), Bermudagrass: 90
bermudagrass; [3]
  Plant response rating, Bermudagrass: 95
bermudagrass; [4]
  Plant response rating, Bermudagrass: 95
bermudagrass; [9]
  Bermudagrass plant response rating: 95
cocklebur; 62 g ai/ha, preemergence
  Plant response rating (0 = no effect, 100 = complete control), Cocklebur: 0
cocklebur; [3]
  Plant response rating, Cocklebur: 0
cocklebur; [4]
  Plant response rating, Cocklebur: 0
cocklebur; [6]
  Cocklebur plant response rating: 0
ducksalad; [10]
  Ducksalad plant response rating: 0
ducksalad; [11]
  Ducksalad plant response rating: 15
ducksalad; [12]
  Ducksalad plant response rating: 40
ducksalad; [13]
  Plant response rating, Ducksalad: 75
Velvetleaf [1]; [14]
  Plant response rating, Velvetleaf: 70
Velvetleaf [1]; [15]
  Velvetleaf plant response rating: 30
Velvetleaf [1]; [16]
  Plant response rating, Velvetleaf: 40
Velvetleaf [2]; Postemergence, 500 g ai/ha, 0 to 100 scale, 0 no effect, 100 complete control
  Velvetleaf plant response rating: 40
Velvetleaf [2]; [17]
  Plant response rating, Velvetleaf: 55
Velvetleaf [2]; [18]
  Velvetleaf plant response rating: 45
Velvetleaf [2]; [19]
  Velvetleaf plant response rating: 70
kochia; 62 g ai/ha, preemergence
  Plant response rating (0 = no effect, 100 = complete control), Kochia: 0
kochia; [3]
  Plant response rating, Kochia: 85
kochia; [6]
  Kochia plant response rating: 100
soybean; 62 g ai/ha, preemergence
  Plant response rating (0 = no effect, 100 = complete control), Soybean: 0
soybean; [3]
  Plant response rating, Soybean: 0
soybean; [6]
  Soybean plant response rating: 10

From patent US20060069132A1, “Azolecarboxamide herbicides” (priority 2004, published 2006)
